In patent US12484582B2, “Herbicidal compound” (PRO FARM GROUP, INC., priority 2017, dated 2025):

Test system: Burgundy amaranth (Amaranthus hypochondriacus)
Test: Herbicidal bioassay against Burgundy amaranth (foliar spray, evaluated 6 days after application)
Type: in vivo
Conditions: 144 h, read-out: (%) Mortality/Control at Concentration (μg/mL)
Source text: As noted above, the herbicidal compositions can be chemically synthesized or derived from a biological organism. Here, the culture broth derived from the 100 L fermentation Burkholderia (A396) was extracted to give crude extract. The crude extract was then fractionated using reversed-phase C18 vacuum liquid chromatography (H2O/CH3OH) to give 5 fractions. These fractions were then screened for herbicidal activity using plant assay with Amaranthus hypochondriacus (Burgundy amaranth). The active fractions (F3 & F4) were then subjected to reversed phase HPLC to give pure compounds, which were then tested in the above mentioned bioassay to locate/identify the active compounds. […] To confirm the identity of the compounds, additional spectroscopic data such as LC-MS and NMR were recorded. Based on the detailed analysis of the data, the two compounds were identified as FR 901464 (MW 507) and spliceostatin C (MW 519). Note that different fermentation method would produce different (or no) amount of the below compound(s), some none at all.
Burgundy amaranth (Amaranthus hypochondriacus) plants were grown in a greenhouse to the 3-4 leaf stage in 2.5 cm square pots containing plant growth mix with slow release fertilizer. Treatments were then applied using a research cabinet track sprayer fitted with an 8001 nozzle and at a carrier volume of 20 gal/A. Negative controls were sprayed with water. Pots were blocked and randomized by treatment after spray and placed in a growth room at 25° C. and 50% RH, and watered as necessary. Plants were evaluated 6 days after application for visual damage and fresh weight. Data in Table 1 was subjected to ANOVA and means were separated using the Tukey method with 95% confidence intervals.

SMILES	mortality at 0.65 µg/mL	mortality at 1.3 µg/mL
CC(=O)OC(C)/C=C\C(=O)NC1CC(C)C(C/C=C(C)/C=C/C2OC(C)(O)CC3(CO3)C2O)OC1C (stereo not shown) [FR901464]	44%	84%
CC(=O)OC(C)/C=C\C(=O)NC1CC(C)C(C/C=C(C)/C=C/C2CC3(CO3)CC(CC(=O)O)O2)OC1C (stereo not shown) [Spliceostatin C]	44%	80%
